Among the data in ChEMBL document CHEMBL1909046, “DrugMatrix in vitro pharmacology data” are IC50 and Ki values, retold here.

Test system in the first data set: not listed separately
The data set is described as follows: DRUGMATRIX: Phorbol Ester radioligand binding (ligand: [3H] PDBu). In kind it is cell membranes, Mus musculus, ICR, Brain, Membrane. The conditions noted are these: Not Active = under 50% inhibition at 10 µM.
On to `Cn1c(=O)c2[nH]cnc2n(C)c1=O.Cn1c(=O)c2[nH]cnc2n(C)c1=O.NCCN` [AMINOPHYLLINE], for which the IC50 entry is given as “Not Active” and the Ki entry is on record as “Not Active”.

On to `CCC1(CCC(C)C)C(=O)NC(=O)NC1=O` [AMOBARBITAL], for which the IC50 entry is “Not Active” and the Ki entry is “Not Active”.

As for `CC1(C)S[C@@H]2[C@H](NC(=O)[C@H](N)c3ccccc3)C(=O)N2[C@H]1C(=O)O` [AMPICILLIN], the IC50 entry is listed as “Not Active” and the Ki result is on record as “Not Active”.

Regarding `COc1ccc(C2C(=O)c3ccccc3C2=O)cc1` [ANISINDIONE], the IC50 result is given as “Not Active” and the Ki result is recorded as “Not Active”.

For the molecule `O=C1O[C@H]([C@@H](O)CO)C(O)=C1O` [ASCORBIC ACID], the IC50 entry was “Not Active” and the Ki entry is on record as “Not Active”.

On to `CN1[C@@H]2CC[C@H]1C[C@@H](OC(=O)C(CO)c1ccccc1)C2` (some centres not stated) [ATROPINE], for which the IC50 entry was “Not Active” and the Ki entry is listed as “Not Active”.

`CC(C(=O)O)c1ccc2oc(-c3ccc(Cl)cc3)nc2c1` (configuration not stated) [BENOXAPROFEN]: the IC50 entry is “Not Active” and the Ki entry was “Not Active”.

As for `O=C(O)CCNC(=O)c1ccccc1` [BETAMIPRON], the IC50 result is “Not Active” and the Ki result is given as “Not Active”.

A further data set deals with Receptor tyrosine-protein kinase erbB-2 (Homo sapiens, UniProt P04626). The data set is described as follows: biochemical. The conditions noted are these: insect cells. In kind it is cell-based, Insect cells.
Chain of Receptor tyrosine-protein kinase erbB-2 (P04626 whole entry): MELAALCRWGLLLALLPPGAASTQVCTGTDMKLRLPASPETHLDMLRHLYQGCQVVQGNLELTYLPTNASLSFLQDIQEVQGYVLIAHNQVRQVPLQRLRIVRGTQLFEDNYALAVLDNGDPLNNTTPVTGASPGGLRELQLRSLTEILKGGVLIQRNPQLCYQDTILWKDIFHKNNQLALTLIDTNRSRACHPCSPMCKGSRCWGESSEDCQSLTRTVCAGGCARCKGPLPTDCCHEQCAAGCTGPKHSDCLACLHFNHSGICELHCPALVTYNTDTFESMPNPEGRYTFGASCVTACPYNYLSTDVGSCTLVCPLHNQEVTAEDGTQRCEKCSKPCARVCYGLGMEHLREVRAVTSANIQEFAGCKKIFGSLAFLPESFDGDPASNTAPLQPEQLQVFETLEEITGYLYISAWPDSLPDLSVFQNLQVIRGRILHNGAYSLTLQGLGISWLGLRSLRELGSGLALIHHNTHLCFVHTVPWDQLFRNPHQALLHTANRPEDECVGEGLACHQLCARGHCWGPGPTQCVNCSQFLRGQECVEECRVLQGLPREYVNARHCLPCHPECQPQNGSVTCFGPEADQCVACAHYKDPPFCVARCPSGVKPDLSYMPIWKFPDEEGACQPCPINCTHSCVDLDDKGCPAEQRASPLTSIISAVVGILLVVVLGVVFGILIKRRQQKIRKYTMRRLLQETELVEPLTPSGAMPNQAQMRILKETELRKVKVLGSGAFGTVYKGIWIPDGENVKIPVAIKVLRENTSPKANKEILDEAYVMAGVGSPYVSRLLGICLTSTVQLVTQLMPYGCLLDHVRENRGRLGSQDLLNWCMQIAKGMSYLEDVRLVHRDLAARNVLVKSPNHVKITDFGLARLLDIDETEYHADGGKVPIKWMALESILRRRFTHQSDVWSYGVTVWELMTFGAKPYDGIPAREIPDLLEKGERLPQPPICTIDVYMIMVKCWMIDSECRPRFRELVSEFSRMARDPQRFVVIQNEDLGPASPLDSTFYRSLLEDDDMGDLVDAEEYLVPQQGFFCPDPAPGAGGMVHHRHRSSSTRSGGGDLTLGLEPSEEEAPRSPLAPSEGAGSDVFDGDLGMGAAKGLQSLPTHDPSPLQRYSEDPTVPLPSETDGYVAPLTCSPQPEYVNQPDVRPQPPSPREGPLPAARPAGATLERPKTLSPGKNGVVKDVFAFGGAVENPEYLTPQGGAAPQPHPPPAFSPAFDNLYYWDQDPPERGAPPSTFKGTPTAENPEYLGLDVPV
In the case of `Cn1c(=O)c2[nH]cnc2n(C)c1=O.Cn1c(=O)c2[nH]cnc2n(C)c1=O.NCCN` [AMINOPHYLLINE], the IC50 result is recorded as “Not Active”.

For the molecule `CCC1(CCC(C)C)C(=O)NC(=O)NC1=O` [AMOBARBITAL], the IC50 result is recorded as “Not Active”.

`CC1(C)S[C@@H]2[C@H](NC(=O)[C@H](N)c3ccccc3)C(=O)N2[C@H]1C(=O)O` [AMPICILLIN]: the IC50 entry is recorded as “Not Active”.

Take `COc1ccc(C2C(=O)c3ccccc3C2=O)cc1` [ANISINDIONE]: the IC50 result is listed as “Not Active”.

On to `O=C1O[C@H]([C@@H](O)CO)C(O)=C1O` [ASCORBIC ACID], for which the IC50 result is listed as “Not Active”.

For `CN1[C@@H]2CC[C@H]1C[C@@H](OC(=O)C(CO)c1ccccc1)C2` (some centres not stated) [ATROPINE], the IC50 entry is given as “Not Active”.

Turning to `CC(C(=O)O)c1ccc2oc(-c3ccc(Cl)cc3)nc2c1` (configuration not stated) [BENOXAPROFEN], the IC50 entry is “Not Active”.

Turning to `O=C(O)CCNC(=O)c1ccccc1` [BETAMIPRON], the IC50 result is recorded as “Not Active”.

In a further data set the target is Acetylcholinesterase (Homo sapiens, UniProt P22303). The data set is described as follows: DRUGMATRIX: Acetylcholinesterase enzyme inhibition (substrate: acetylthiocholine). In kind it is cell-based, HEK293. The conditions noted are these: hek293; Not Active = under 50% inhibition at 10 µM.
Chain of Acetylcholinesterase (P22303 whole entry): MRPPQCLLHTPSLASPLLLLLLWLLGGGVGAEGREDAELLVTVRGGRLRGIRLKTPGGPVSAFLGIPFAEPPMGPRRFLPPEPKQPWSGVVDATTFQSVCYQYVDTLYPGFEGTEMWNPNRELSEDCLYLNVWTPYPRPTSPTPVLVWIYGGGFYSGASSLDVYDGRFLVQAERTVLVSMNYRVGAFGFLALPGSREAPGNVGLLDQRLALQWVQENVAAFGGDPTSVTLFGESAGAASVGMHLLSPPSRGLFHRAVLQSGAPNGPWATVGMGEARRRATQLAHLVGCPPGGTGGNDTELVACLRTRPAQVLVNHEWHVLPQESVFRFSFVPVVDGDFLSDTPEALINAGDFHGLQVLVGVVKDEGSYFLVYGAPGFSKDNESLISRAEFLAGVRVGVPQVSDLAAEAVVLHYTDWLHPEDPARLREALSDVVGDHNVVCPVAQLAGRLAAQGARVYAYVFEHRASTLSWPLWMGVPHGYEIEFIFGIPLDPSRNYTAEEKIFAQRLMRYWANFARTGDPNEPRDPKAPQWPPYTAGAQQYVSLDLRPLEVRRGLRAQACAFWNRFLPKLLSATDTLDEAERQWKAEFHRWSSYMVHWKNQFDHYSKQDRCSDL
Take `Cn1c(=O)c2[nH]cnc2n(C)c1=O.Cn1c(=O)c2[nH]cnc2n(C)c1=O.NCCN` [AMINOPHYLLINE]: the IC50 entry is listed as “Not Active”.

With `CCC1(CCC(C)C)C(=O)NC(=O)NC1=O` [AMOBARBITAL], the IC50 entry is listed as “Not Active”.

In the case of `CC1(C)S[C@@H]2[C@H](NC(=O)[C@H](N)c3ccccc3)C(=O)N2[C@H]1C(=O)O` [AMPICILLIN], the IC50 result was “Not Active”.

`COc1ccc(C2C(=O)c3ccccc3C2=O)cc1` [ANISINDIONE]: the IC50 entry is listed as “Not Active”.

In the case of `O=C1O[C@H]([C@@H](O)CO)C(O)=C1O` [ASCORBIC ACID], the IC50 entry was “Not Active”.

As for `CN1[C@@H]2CC[C@H]1C[C@@H](OC(=O)C(CO)c1ccccc1)C2` (some centres not stated) [ATROPINE], the IC50 entry is “Not Active”.

As to `CC(C(=O)O)c1ccc2oc(-c3ccc(Cl)cc3)nc2c1` (configuration not stated) [BENOXAPROFEN], the IC50 result was “Not Active”.

As for `O=C(O)CCNC(=O)c1ccccc1` [BETAMIPRON], the IC50 result was “Not Active”.

In a further data set the target is Cytochrome P450 2E1 (Homo sapiens, UniProt P05181). Further: in other assays of this panel Not Active means under 50% inhibition at 10 µM.
Chain of Cytochrome P450 2E1 (P05181 whole entry): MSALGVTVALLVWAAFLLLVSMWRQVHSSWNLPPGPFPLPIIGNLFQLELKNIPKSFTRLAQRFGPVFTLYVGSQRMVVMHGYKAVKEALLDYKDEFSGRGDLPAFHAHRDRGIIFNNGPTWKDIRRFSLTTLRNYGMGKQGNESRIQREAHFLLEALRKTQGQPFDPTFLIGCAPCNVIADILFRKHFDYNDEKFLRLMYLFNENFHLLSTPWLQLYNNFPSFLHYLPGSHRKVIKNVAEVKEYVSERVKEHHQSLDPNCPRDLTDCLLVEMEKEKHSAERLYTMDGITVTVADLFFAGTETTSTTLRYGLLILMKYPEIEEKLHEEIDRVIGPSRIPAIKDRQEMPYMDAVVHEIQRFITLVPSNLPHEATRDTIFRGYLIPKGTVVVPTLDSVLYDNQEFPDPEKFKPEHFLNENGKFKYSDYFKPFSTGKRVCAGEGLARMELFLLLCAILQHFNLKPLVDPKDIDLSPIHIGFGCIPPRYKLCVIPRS
Experiment: not given
Particulars: bti-tn-5b1-4.
`Cn1c(=O)c2[nH]cnc2n(C)c1=O.Cn1c(=O)c2[nH]cnc2n(C)c1=O.NCCN` [AMINOPHYLLINE]: the IC50 entry is reported as “Not Active” and the Ki entry is “Not Active”.

On to `CCC1(CCC(C)C)C(=O)NC(=O)NC1=O` [AMOBARBITAL], for which the IC50 entry was “Not Active” and the Ki entry is given as “Not Active”.

For `CC1(C)S[C@@H]2[C@H](NC(=O)[C@H](N)c3ccccc3)C(=O)N2[C@H]1C(=O)O` [AMPICILLIN], the IC50 result was “Not Active” and the Ki result is reported as “Not Active”.

As to `COc1ccc(C2C(=O)c3ccccc3C2=O)cc1` [ANISINDIONE], the IC50 result is listed as “Not Active” and the Ki result is “Not Active”.

With `O=C1O[C@H]([C@@H](O)CO)C(O)=C1O` [ASCORBIC ACID], the IC50 result is given as “Not Active” and the Ki entry is “Not Active”.

With `CN1[C@@H]2CC[C@H]1C[C@@H](OC(=O)C(CO)c1ccccc1)C2` (some centres not stated) [ATROPINE], the IC50 result is on record as “Not Active” and the Ki entry was “Not Active”.

For `CC(C(=O)O)c1ccc2oc(-c3ccc(Cl)cc3)nc2c1` (configuration not stated) [BENOXAPROFEN], the IC50 entry is listed as “Not Active” and the Ki result is reported as “Not Active”.

As to `O=C(O)CCNC(=O)c1ccccc1` [BETAMIPRON], the IC50 entry is “Not Active” and the Ki entry was “Not Active”.

A further data set deals with Epidermal growth factor receptor (Homo sapiens, UniProt P00533). Put plainly: DRUGMATRIX: Protein Tyrosine Kinase, EGF Receptor enzyme inhibition (substrate: Poly(Glu:Tyr)). The format is cell-based, Insect cells. The conditions noted are these: insect cells; Not Active = under 50% inhibition at 10 µM.
Chain of Epidermal growth factor receptor (P00533 whole entry): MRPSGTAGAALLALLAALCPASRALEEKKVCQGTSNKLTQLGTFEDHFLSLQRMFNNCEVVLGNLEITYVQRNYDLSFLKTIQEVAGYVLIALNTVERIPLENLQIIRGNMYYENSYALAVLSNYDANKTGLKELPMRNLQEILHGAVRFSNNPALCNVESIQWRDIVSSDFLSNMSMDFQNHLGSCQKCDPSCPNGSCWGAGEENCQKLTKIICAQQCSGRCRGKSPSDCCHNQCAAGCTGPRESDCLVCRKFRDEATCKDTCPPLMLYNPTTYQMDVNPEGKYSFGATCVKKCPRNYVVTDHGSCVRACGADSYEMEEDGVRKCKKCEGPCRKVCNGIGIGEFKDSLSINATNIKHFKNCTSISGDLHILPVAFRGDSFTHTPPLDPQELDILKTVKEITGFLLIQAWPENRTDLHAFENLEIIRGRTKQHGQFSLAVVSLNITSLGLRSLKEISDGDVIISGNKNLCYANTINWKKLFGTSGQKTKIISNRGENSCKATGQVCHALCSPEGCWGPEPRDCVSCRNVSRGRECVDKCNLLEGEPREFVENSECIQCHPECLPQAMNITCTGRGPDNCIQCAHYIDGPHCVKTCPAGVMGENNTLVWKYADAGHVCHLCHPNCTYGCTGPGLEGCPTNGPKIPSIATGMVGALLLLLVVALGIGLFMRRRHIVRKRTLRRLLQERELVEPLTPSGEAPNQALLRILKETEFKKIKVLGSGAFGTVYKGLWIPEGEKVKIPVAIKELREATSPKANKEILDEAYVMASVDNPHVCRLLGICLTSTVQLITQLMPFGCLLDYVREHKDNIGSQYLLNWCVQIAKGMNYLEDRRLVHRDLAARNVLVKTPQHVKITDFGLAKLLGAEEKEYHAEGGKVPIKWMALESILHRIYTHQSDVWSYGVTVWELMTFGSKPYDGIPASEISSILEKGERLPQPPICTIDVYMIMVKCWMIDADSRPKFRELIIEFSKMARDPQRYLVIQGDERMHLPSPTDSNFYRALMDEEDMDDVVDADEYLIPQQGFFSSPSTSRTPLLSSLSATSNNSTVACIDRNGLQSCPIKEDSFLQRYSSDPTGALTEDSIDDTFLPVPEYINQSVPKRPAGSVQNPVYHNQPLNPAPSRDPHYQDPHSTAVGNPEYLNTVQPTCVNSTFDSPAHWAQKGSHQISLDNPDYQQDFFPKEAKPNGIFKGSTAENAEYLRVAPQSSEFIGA
`Cn1c(=O)c2[nH]cnc2n(C)c1=O.Cn1c(=O)c2[nH]cnc2n(C)c1=O.NCCN` [AMINOPHYLLINE]: the IC50 result was “Not Active”.

As for `CCC1(CCC(C)C)C(=O)NC(=O)NC1=O` [AMOBARBITAL], the IC50 result was “Not Active”.

For the molecule `CC1(C)S[C@@H]2[C@H](NC(=O)[C@H](N)c3ccccc3)C(=O)N2[C@H]1C(=O)O` [AMPICILLIN], the IC50 entry is listed as “Not Active”.

As for `COc1ccc(C2C(=O)c3ccccc3C2=O)cc1` [ANISINDIONE], the IC50 entry is “Not Active”.

On to `O=C1O[C@H]([C@@H](O)CO)C(O)=C1O` [ASCORBIC ACID], for which the IC50 result is listed as “Not Active”.

Take `CN1[C@@H]2CC[C@H]1C[C@@H](OC(=O)C(CO)c1ccccc1)C2` (some centres not stated) [ATROPINE]: the IC50 result is “Not Active”.

As for `CC(C(=O)O)c1ccc2oc(-c3ccc(Cl)cc3)nc2c1` (configuration not stated) [BENOXAPROFEN], the IC50 entry is “Not Active”.

Take `O=C(O)CCNC(=O)c1ccccc1` [BETAMIPRON]: the IC50 entry is given as “Not Active”.

The target in the next data set is T1, Substance-K receptor (Homo sapiens, UniProt P21452). Further: in other assays of this panel Not Active means under 50% inhibition at 10 µM.
T1 sequence (P21452 whole entry): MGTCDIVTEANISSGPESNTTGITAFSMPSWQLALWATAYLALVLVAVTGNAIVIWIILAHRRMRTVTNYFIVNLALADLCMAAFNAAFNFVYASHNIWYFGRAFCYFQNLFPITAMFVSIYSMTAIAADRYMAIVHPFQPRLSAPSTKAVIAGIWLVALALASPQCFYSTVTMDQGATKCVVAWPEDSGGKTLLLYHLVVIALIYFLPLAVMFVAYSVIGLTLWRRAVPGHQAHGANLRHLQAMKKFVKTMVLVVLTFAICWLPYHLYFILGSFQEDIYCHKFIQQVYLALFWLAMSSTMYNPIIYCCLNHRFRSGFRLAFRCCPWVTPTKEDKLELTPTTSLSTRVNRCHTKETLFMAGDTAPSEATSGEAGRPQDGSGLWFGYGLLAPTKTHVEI
Experiment: not given
Particulars: cho. In kind it is cell membranes, CHO, Membrane.
Regarding `Cn1c(=O)c2[nH]cnc2n(C)c1=O.Cn1c(=O)c2[nH]cnc2n(C)c1=O.NCCN` [AMINOPHYLLINE], the IC50 result is given as “Not Active”.

Take `CCC1(CCC(C)C)C(=O)NC(=O)NC1=O` [AMOBARBITAL]: the IC50 result is recorded as “Not Active”.

In the case of `CC1(C)S[C@@H]2[C@H](NC(=O)[C@H](N)c3ccccc3)C(=O)N2[C@H]1C(=O)O` [AMPICILLIN], the IC50 entry was “Not Active”.

For the molecule `COc1ccc(C2C(=O)c3ccccc3C2=O)cc1` [ANISINDIONE], the IC50 result was “Not Active”.

As for `O=C1O[C@H]([C@@H](O)CO)C(O)=C1O` [ASCORBIC ACID], the IC50 result is reported as “Not Active”.

As to `CN1[C@@H]2CC[C@H]1C[C@@H](OC(=O)C(CO)c1ccccc1)C2` (some centres not stated) [ATROPINE], the IC50 result is reported as “Not Active”.

Consider `CC(C(=O)O)c1ccc2oc(-c3ccc(Cl)cc3)nc2c1` (configuration not stated) [BENOXAPROFEN], for which the IC50 entry is listed as “Not Active”.

Consider `O=C(O)CCNC(=O)c1ccccc1` [BETAMIPRON], for which the IC50 entry was “Not Active”.

In another data set the target is T2, Neuropeptide Y receptor type 2 (Homo sapiens, UniProt P49146). Further: in other assays of this panel Not Active means under 50% inhibition at 10 µM.
T2 sequence (P49146 whole entry): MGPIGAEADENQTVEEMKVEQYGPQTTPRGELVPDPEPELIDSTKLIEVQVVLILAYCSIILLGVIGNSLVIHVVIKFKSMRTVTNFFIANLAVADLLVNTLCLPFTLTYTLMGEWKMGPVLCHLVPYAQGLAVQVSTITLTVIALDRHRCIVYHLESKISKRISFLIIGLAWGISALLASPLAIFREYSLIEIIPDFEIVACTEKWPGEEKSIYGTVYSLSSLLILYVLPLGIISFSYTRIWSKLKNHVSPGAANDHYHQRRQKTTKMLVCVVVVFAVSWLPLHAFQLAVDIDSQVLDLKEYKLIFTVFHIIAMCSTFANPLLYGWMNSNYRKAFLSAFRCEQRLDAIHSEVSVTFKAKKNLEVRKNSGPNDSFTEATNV
Experiment: not given
In kind it is cell membranes, KAN-TS, Membrane. Particulars: kan-ts.
Regarding `Cn1c(=O)c2[nH]cnc2n(C)c1=O.Cn1c(=O)c2[nH]cnc2n(C)c1=O.NCCN` [AMINOPHYLLINE], the IC50 result was “Not Active”.

`CCC1(CCC(C)C)C(=O)NC(=O)NC1=O` [AMOBARBITAL]: the IC50 result was “Not Active”.

For the molecule `CC1(C)S[C@@H]2[C@H](NC(=O)[C@H](N)c3ccccc3)C(=O)N2[C@H]1C(=O)O` [AMPICILLIN], the IC50 result is reported as “Not Active”.

Turning to `COc1ccc(C2C(=O)c3ccccc3C2=O)cc1` [ANISINDIONE], the IC50 entry is listed as “Not Active”.

For `O=C1O[C@H]([C@@H](O)CO)C(O)=C1O` [ASCORBIC ACID], the IC50 result is “Not Active”.

On to `CN1[C@@H]2CC[C@H]1C[C@@H](OC(=O)C(CO)c1ccccc1)C2` (some centres not stated) [ATROPINE], for which the IC50 result was “Not Active”.

Regarding `CC(C(=O)O)c1ccc2oc(-c3ccc(Cl)cc3)nc2c1` (configuration not stated) [BENOXAPROFEN], the IC50 entry is listed as “Not Active”.

As for `O=C(O)CCNC(=O)c1ccccc1` [BETAMIPRON], the IC50 result is recorded as “Not Active”.
